Here are results for three molecules from ChEMBL document CHEMBL1782014, “20(R)-ginsenoside Rh2, not 20(S), is a selective osteoclastgenesis inhibitor without any cytotoxicity” (Bioorg Med Chem Lett, 2009).

A value given as a limit tells only on which side of the number the result lay.

Data set [1] deals with Radical scavenging activity. Briefly: Antioxidant activity assessed as DPPH radical scavenging activity at 1.6 mM after 20 mins by UV spectrophotometry. It counts as functional.
Data set [2] can be described thus: Toxicity in RANKL and TNFalpha-pretreated mouse RAW264 cells assessed as inhibition of cell proliferation incubated for 3 days by WST-1 assay. The following applies: RAW264 cells pretreated with RANKL and TNFalpha. For orientation: Tetrazolium dyes change colour on reduction, which living cells bring about.
The nature of data set [3]: Inhibition of RANKL and TNF-alpha-induced osteoclastogenesis in mouse RAW264 cells incubated for 3 days by TRAP staining based method. The following applies: RAW264.7, 72 h. It counts as functional, cell-based.
Data set [4] is described as follows: Toxicity in RANKL and TNFalpha-pretreated mouse RAW264 cells assessed as effect on cell proliferation upto 50 uM incubated for 3 days by WST-1 assay. The following applies: raw264, 72 h.
Data set [5] can be described thus: Toxicity in RANKL and TNFalpha-pretreated mouse RAW264 cells assessed as inhibition of cell proliferation upto 100 uM incubated for 3 days by WST-1 assay. The following applies: raw264, 72 h.
The subject of data set [6] is Radical scavenging activity. The experiment in a line: Antioxidant activity assessed as DPPH radical scavenging activity at 0.2 mM after 20 mins by UV spectrophotometry. It counts as functional. For orientation: The DPPH test is a chemical assay of radical scavenging.

As usually defined, the IC50 is the concentration at which inhibition is half-maximal. Regarding `CC(C)=CCC[C@](C)(O)[C@H]1CC[C@]2(C)[C@@H]1[C@H](O)C[C@@H]1[C@@]3(C)CC[C@H](O[C@@H]4O[C@H](CO)[C@@H](O)[C@H](O)[C@H]4O)C(C)(C)[C@@H]3CC[C@]12C` [GINSENOSIDE RH2], the Activity in data set [1] is under 10%. The IC50 at 3 days in data set [2] came to 62 µM. Moreover, in data set [3], the 50% inhibitory concentration (IC50) was determined as 32 µM.
Regarding `CC(C)=CCC[C@@](C)(O)[C@H]1CC[C@]2(C)[C@@H]1[C@H](O)C[C@@H]1[C@@]3(C)CC[C@H](O[C@@H]4O[C@H](CO)[C@@H](O)[C@H](O)[C@H]4O)C(C)(C)[C@@H]3CC[C@]12C`, the figures for the Activity in data set [1], in data set [4] and in data set [5] were under 10%, “Non-toxic” and “Non-toxic”, respectively. Moreover, the half-maximal inhibitory concentration (IC50) in data set [3] turned out to be 12 µM.
For `Cc1c(C)c2c(c(C)c1O)CC[C@@](C)(CCC[C@H](C)CCC[C@H](C)CCCC(C)C)O2`, in data set [6], the Activity was 96%.
